According to US20100203507A1 (PROMETHEUS LABORATORIES, INC, priority 2005, published 2010):
Several values for one entry are separate records, joined by “and”; a condition that tells them apart may be missing. Equal entries are not always repeated.

Experiments:
[1] = system: patients with rheumatoid arthritis; test: Cross-sectional study: occurrence of side-effects under low dose MTX therapy (Example 1); format: in vivo, human
Protocol: (§1) Study design: The study was cross-sectional at two investigational California sites (Cedars Sinai, Department of Rheumatology; and UCLA, Department of Rheumatology). […] Concomitant disease-modifying arthritis agents (e.g., sulphasalazine, hydroxychloroquine, leflunomide), low-dose corticosteroids (<10 mg day), and folic acid supplementation were allowed. […] Patient demographics were collected at the time of enrollment in the study. At a single study visit, EDTA blood was drawn and shipped overnight to Prometheus Laboratories in San Diego, Calif.
(§2) Clinical status assessment: Patient clinical and demographic characteristics were collected at the single study visit. Clinical efficacy was assessed using the disease activity score (DAS28), which includes the number of tender and swollen joint counts (n=28), the erythrocyte sedimentation rate, and the patient's global assessment of disease activity.
Statistical analysis: The analysis consisted of multivariate logistic regression with the occurrence of side-effects as the dependent variable.

[2] = system: patients with rheumatoid arthritis; test: Cross-sectional study: clinical efficacy by disease activity score DAS28 (Example 1); format: in vivo, human
Protocol: as §1, §2

[3] = system: RBC folate polyglutamates; test: RBC folate polyglutamate levels by radio-assay (Example 2); format: in vivo, human; details: for RBC folate PG decrease versus baseline / RBC folate PG levels: fourth visit
Protocol: Laboratory measurements: Red blood cell (RBC) long-chain MTXPG concentrations (MTXPG3; nmol/L RBC) were measured using a post-column photo-oxidation HPLC-fluorometry technique as described in, e.g., Dervieux et al., Clin. Chem., 49:1632-1641 (2003). RBC folate polyglutamates (Folate PGs; expressed as nmol/L RBCs) were measured using a radio-assay (Biorad; Hercules, Calif.). The MTHFR C677T polymorphism can be measured with a real-time TaqMan allelic discrimination assay as described above. The MS A2756G polymorphism, which results in an aspartic acid to glycine substitution at codon 919 of MS, can be measured with a real-time TaqMan allelic discrimination assay using the following primers and fluorogenic 3′-minor groove binding probes: forward primer: 5′-GAATACTTTGAGGAAATCATGGAAGA-3′ (SEQ ID NO:17); reverse primer: 5′-TCTGTTTCTACCACTTACCTTGAGAGACT-3′ (SEQ ID NO:18); wild-type fluorescent probe: 5′-FAM-AGA CAG GAC CAT TAT G-MGB-3′ (SEQ ID NO:19); and mutant fluorescent probe: 5′-VIC-ACA GGG CCA TTA TG-MGB-3′ (SEQ ID NO:20).

[4] = system: adult rheumatoid arthritis patients naive to MTX; test: Prospective longitudinal MTX dose escalation study: occurrence of side-effects (Example 2)
Protocol: The clinical assessment at each study visit consisted of a tender and swollen joint count, a patient's assessment of disease activity (10 cm-VAS), a physician's assessment of disease activity (10 cm-VAS), and a C-Reactive protein (CRP) determination.
The occurrence of side-effects was recorded at the time of each study visit. […] Leukocyte count, hemoglobin, and liver AST were measured on the day of the study visit using standard laboratory methods. […] All data were captured on Case Report Forms using a standardized questionnaire. This consisted of the presence of nausea, dyspepsia, diarrhea, headache, lethargy, stomatitis, alopecia, and pulmonary toxicity (e.g., cough, dyspnea, pulmonary infiltrates). Patients were evaluated by the same physician at the time of each study visit. Toxicities were graded as “mild,” “moderate,” and “severe.” EDTA whole blood was drawn from each patient and shipped overnight from Albany, N.Y. to Prometheus Laboratories in San Diego, Calif.
Toxicities were analyzed using the percentage of 4-6 week periods with side-effects per patient. […] Statistical analyses were performed using the software package SAS (Release 8.2; SAS Institute Inc.; Cary, N.C.).

[5] = system: adult rheumatoid arthritis patients naive to MTX; test: Prospective longitudinal MTX dose escalation study: response (DAS28, EULAR criteria, physician's assessment VAS) (Example 2)
[6] = 97 patients, single study visit
[7] = MS 2756A/A vs. MS2756 A/G or G/G
[8] = MTHFR 1298A/C or C/C vs. MTHFR 1298A/A
[9] = MTRR 66G/G vs. MTRR 66A/A or A/G
[10] = visit 4, generalized linear model
[11] = visit 6, generalized linear model

CN(Cc1cnc2nc(N)nc(N)c2n1)c1ccc(C(=O)N[C@@H](CCC(=O)O)C(=O)O)cc1 [MTX, methotrexate]
Patients with high disease activity and side-effects, number ([1]; 97 patients): 18
Overall side-effects, number of patients ([1]; 97 patients on MTX at least one month, single study visit): 40
AST >40 U/L, % of patients [1, 6]: (6.1%)
AST >40 U/L, number of patients [1, 6]: 6
Alopecia, % of patients [1, 6]: (17.5%)
Alopecia, number of patients [1, 6]: 17
Central nervous system side-effects, % of patients [1, 6]: (11.3%)
Central nervous system side-effects, number of patients [1, 6]: 11
Diarrhea, % of patients [1, 6]: (6.2%)
Diarrhea, number of patients [1, 6]: 6
Dyspepsia, % of patients [1, 6]: (7.2%)
Dyspepsia, number of patients [1, 6]: 7
Elevation of AST twice the upper normal value, pulmonary toxicity, or hematopoietic toxicity [1, 6]: None of the patients
Gastrointestinal tract side-effects, % of patients [1, 6]: (24.7%)
Gastrointestinal tract side-effects, number of patients [1, 6]: 24
Headache, % of patients [1, 6]: (5.1%)
Headache, number of patients [1, 6]: 8
Lethargy, % of patients [1, 6]: (8.2%)
Lethargy, number of patients [1, 6]: 8
Nausea, % of patients [1, 6]: (9.2%)
Nausea, number of patients [1, 6]: 9
Severity of side-effects [1, 6]: mild and did not require MTX withdrawal
Stomatatis, % of patients [1, 6]: (3.1%)
Stomatatis, number of patients [1, 6]: 3
Patients with high disease activity also experiencing a side-effect ([1]; of patients with high disease activity, at the time of the visit): 39%
Occurrence of central nervous system side-effects ([1]; patients with MTHFR 677C/T or 677C/C genotype): 9.0%
Occurrence of central nervous system side-effects ([1]; patients with MTHFR 677T/T genotype): 62.5%
Patients presenting with a side-effect ([1]; toxicogenetic index of 0): 17%
Patients presenting with a high disease activity ([2]; 97 patients on MTX): 47%
Disease activity score (DAS28), median ([2]; 97 patients, median 30 months under methotrexate): 5.04
Estimate, percentage change in DAS28 vs percentage change in folate PG levels ([3]; baseline to visit 4): 0.32±0.10
Estimate, percentage change in physician's assessment VAS vs percentage change in folate PG levels ([3]; baseline to visit 4): 0.71±0.22
Estimate, MTX dose vs decrease in RBC folate PGs ([3]; baseline to visit 6): 0.0324±0.014
Estimate, MTXPG levels vs decrease in RBC folate PGs ([3]; baseline to visit 6): −0.009±0.003
Decrease in folate levels ([3]; dose 7.5 to 15 mg/week with MTXPG increase of 40 nmol/L RBCs at visit 6, from model equation): 11.7%
Median RBC folate PG levels ([3]; fourth study visit, n=43 (initial 1222)): 1065 nmol/L RBCs
RBC folate PG decrease versus baseline ([3]; efficacy index above 1): 14%
RBC folate PG levels ([3]; efficacy index above 1): 1257 ± 70 nmol/L
RBC folate PG decrease versus baseline ([3]; efficacy index of 0): 36%
RBC folate PG levels ([3]; efficacy index of 0): 886 ± 59 nmol/L
RBC folate PG decrease versus baseline ([3]; efficacy index of 1): 42%
RBC folate PG levels ([3]; efficacy index of 1): 1168 ± 70 nmol/L
Median RBC folate PG levels ([3]; sixth visit): 994 nmol/L RBCs
Likelihood of response to MTX, decrease in RBC folate PGs vs no change or increase ([3]; visit 4): 8 fold and 7.7 fold
Patients who experienced a severe side-effect in one of the study visits, number ([4]; 2 severe lethargy, 2 severe dyspepsia): 4
Signs of hematological toxicity ([4]; 48 patients): None of the patients
AST >40 U/L: median of percentage of study visits with side-effect per patient ([4]; 48 patients, 4 to 6 visits): 0%
All side-effects: median of percentage of study visits with side-effect per patient ([4]; 48 patients, 4 to 6 visits): 50%
Alopecia: median of percentage of study visits with side-effect per patient ([4]; 48 patients, 4 to 6 visits): 0%
Alopecia: number of patients (% total) with at least one study visit with side-effect ([4]; 48 patients, 4 to 6 visits): 4 (8%)
Central nervous system: median of percentage of study visits with side-effect per patient ([4]; 48 patients, 4 to 6 visits): 25%
Central nervous system: number of patients (% total) with at least one study visit with side-effect ([4]; 48 patients, 4 to 6 visits): 30 (63%)
Cough: median of percentage of study visits with side-effect per patient ([4]; 48 patients, 4 to 6 visits): 0%
Cough: number of patients (% total) with at least one study visit with side-effect ([4]; 48 patients, 4 to 6 visits): 12 (25%)
Dyspnea: median of percentage of study visits with side-effect per patient ([4]; 48 patients, 4 to 6 visits): 0%
Dyspnea: number of patients (% total) with at least one study visit with side-effect ([4]; 48 patients, 4 to 6 visits): 1 (2.1%)
Gastrointestinal tract: median of percentage of study visits with side-effect per patient ([4]; 48 patients, 4 to 6 visits): 25%
Gastrointestinal tract: number of patients (% total) with at least one study visit with side-effect ([4]; 48 patients, 4 to 6 visits): 33 (69%)
Headache: median of percentage of study visits with side-effect per patient ([4]; 48 patients, 4 to 6 visits): 0%
Headache: number of patients (% total) with at least one study visit with side-effect ([4]; 48 patients, 4 to 6 visits): 14 (29%)
Lethargy: median of percentage of study visits with side-effect per patient ([4]; 48 patients, 4 to 6 visits): 17%
Lethargy: number of patients (% total) with at least one study visit with side-effect ([4]; 48 patients, 4 to 6 visits): 27 (56%)
diarrhea: median of percentage of study visits with side-effect per patient ([4]; 48 patients, 4 to 6 visits): 0%
diarrhea: number of patients (% total) with at least one study visit with side-effect ([4]; 48 patients, 4 to 6 visits): 15 (31%)
dyspepsia: median of percentage of study visits with side-effect per patient ([4]; 48 patients, 4 to 6 visits): 0%
dyspepsia: number of patients (% total) with at least one study visit with side-effect ([4]; 48 patients, 4 to 6 visits): 16 (33%)
nausea: median of percentage of study visits with side-effect per patient ([4]; 48 patients, 4 to 6 visits): 0%
nausea: number of patients (% total) with at least one study visit with side-effect ([4]; 48 patients, 4 to 6 visits): 22 (46%)
stomatitis: median of percentage of study visits with side-effect per patient ([4]; 48 patients, 4 to 6 visits): 0%
stomatitis: number of patients (% total) with at least one study visit with side-effect ([4]; 48 patients, 4 to 6 visits): 5 (10%)
Estimate, percentage of 4 week periods with all side-effects [4, 7]: 0.20 ± 0.09
Estimate, percentage of 4 week periods with central nervous system side-effects [4, 7]: 0.11 ± 0.09
Estimate, percentage of 4 week periods with gastrointestinal side-effects [4, 7]: 0.29 ± 0.08
Estimate, percentage of 4 week periods with all side-effects [4, 8]: 0.18 ± 0.10
Estimate, percentage of 4 week periods with central nervous system side-effects [4, 8]: 0.21 ± 0.10
Estimate, percentage of 4 week periods with gastrointestinal side-effects [4, 8]: 0.25 ± 0.09
Estimate, percentage of 4 week periods with all side-effects [4, 9]: 0.22 ± 0.10
Estimate, percentage of 4 week periods with central nervous system side-effects [4, 9]: 0.16 ± 0.09
Estimate, percentage of 4 week periods with gastrointestinal side-effects [4, 9]: 0.28 ± 0.09
Increase in MCV above 120 fl ([4]; baseline to visit 4): none of the patients
Patients requiring MTX dosage interruption, number ([4]; both at the fourth visit): Two
Estimate, MTX dose administered vs occurrence of central nervous system side-effects ([4]; generalized linear model): 0.186
Median increase in MCV from baseline ([4]; visit 4): 3.5%
Erythrocyte mean corpuscular volume (MCV), median ([4]; visit 4 (baseline 89 fl)): 93 fL
MCV of the only one patient above 120 fl ([4]; visit 6): 124 fL
Median increase in MCV ([4]; visit 6): 3.7%
Estimate, lower decrease in physician's assessment in disease activity ([5]; MTHFR 677T/T genotype): 0.367
OR, lower likelihood of response to therapy ([5]; MTHFR 677T/T genotype, visit 4): 9.9
OR, therapeutic response at about 6 months when MTXPG3 greater than about 20 nmol/L RBCs at about 3 months ([5]; RBC MTXPG3): 8.0
Estimate, lower decrease in physician's assessment in disease activity ([5]; TS *2/*2 genotype): 0.360
OR, lower likelihood of response to therapy ([5]; TS *2/*2 genotype, visit 4): 3.9
Decrease in physician's assessment of disease activity compared to baseline ([5]; dose escalation 7.5 to 15 mg/week with MTXPG increase of 40 nmol/L RBCs at visit 4, from model equation): 19.8%
Patients responding to therapy ([5]; visit 4): 77%
Patients responding to therapy, number ([5]; visit 4): 36
Patients with good response, number ([5]; visit 4): 15
Patients with moderate response, number ([5]; visit 4): 11
Patients with poor response (EULAR) ([5]; visit 4): 23%
DAS28, median ([5]; visit 4 (baseline 5.1)): 3.5
Physician's assessment of disease activity 10 cm VAS, median ([5]; visit 4 (baseline 5.6)): 2.6
Estimate, RBC MTXPG level vs percentage change from baseline in physician's assessment VAS [5, 10]: −0.013±0.004
Estimate, weekly MTX dose vs percentage change from baseline in physician's assessment VAS [5, 10]: 0.043±0.017
Estimate, RBC MTXPG formation in responders vs non-responders ([5]; visit 4, generalized linear model, FIG. 3A): 0.034±0.020
Patients with poor response (EULAR), number ([5]; visit 4, median dose 15 mg/week): 11
Median decrease (from baseline) in DAS28 ([5]; visit 4, n=47): 36%
Median decrease (from baseline) in physician's assessment of disease activity VAS ([5]; visit 4, n=48): 47%
Estimate, MTX dose vs percentage change from baseline in DAS28 ([5]; visit 6): 0.011±0.051
Estimate, formation of RBC MTXPGs vs percentage change from baseline in DAS28 ([5]; visit 6): −0.003±0.001
Non-responders ([5]; visit 6): 9%
Responders with moderate response, number ([5]; visit 6): 10
Responders, number of patients ([5]; visit 6): 31
DAS28, median ([5]; visit 6 (baseline 5.1)): 3.1
Physician's assessment of disease activity 10 cm VAS, median ([5]; visit 6 (baseline 5.6)): 2.1
Estimate, RBC MTXPG levels vs percentage change from baseline in physician's assessment of disease activity [5, 11]: −0.0077±0.025
Estimate, weekly MTX dose vs percentage change from baseline in physician's assessment of disease activity [5, 11]: 0.029±0.012
Non-responders, number of patients ([5]; visit 6, median dose 17.5 mg weekly): three
Median decrease (from baseline) in DAS28 ([5]; visit 6, n=34): 41%
Median decrease (from baseline) in physician's assessment of disease activity VAS ([5]; visit 6, n=35): 52%
Responders with moderate response ([5]; visit 6, of the responders): 32%
